From patent publication US8449788B2, “Leather finishing compositions comprising dioxolane derivatives” (Rhodia Poliamida e Especialidades Ltda, priority 2009, dated 2013)
Like-named read-outs stand apart in the source and are kept apart here.

Columns and labels:
[1] = Solubilization of a dye-metal complex; assay type: physicochemical
Protocol: Solketal was tested to solubilize a dye-metal complex.

[2] = cited from earlier work
mouse = settings: cited from earlier work
[3] = cited from earlier work; remark: listed apart in the source
[4] = cited from earlier work; remark: listed apart in the source

Compound: CC1(C)OCC(CO)O1 (stereo not drawn) [Solketal, 2,2-dimethyl-1,3-dioxolane-4-methanol]
- Performance as solvent for dye-metal complex [1]: good compared to diacetone alcohol and methoxy propanol, and less effective compared to ethyldiglycol, ethylglycol, butyldiglycol and butylglycol
- Performance as solvent for dye-metal complex ([1]; listed as solketal): average
- Solubility in water at 20° C. [2]: miscible
- LD50 (oral/mouse mg/kg) (mouse): 7000 mg/kg
- Reversion in slightly acid pH (biodegradability) [3]: may revert into acetone and glycerin
- Acute oral toxicity [4]: 7.00
